Reference: patent US11952611B2, “Methods and systems for detection of antibiotic resistance” (Laboratory Corporation of America Holdings, priority 2017, dated 2024)
Read-outs that look alike come from different tables or passages of the source.

Columns and labels:
MRSA = assay: Recombinant phage luciferase assay, oxacillin vs cefoxitin (Table 1), MRSA strains; assay type: cell-based, Staphylococcus aureus
Protocol: (§1) Bacterial strains were serially diluted to approximately 1×10^3 CFU/mL and transferred to a 96-well plate at 135 μL per well. 15 μL of oxacillin or cefoxitin were added to the wells to reach a final concentration of 1.0 μg/mL or 2.0 μg/mL of oxicillin or 2.0 μg/mL, 4.0 μg/mL, 8.0 μg/mL, or 10.0 μg/mL of cefoxitin. The plate was then sealed and incubated at 37° C. for 2 hours. 10 μL of recombinant phage (1.6×10^8 pfu/mL) was added to each well. The plate was then re-sealed and incubated at 37° C. for 2 hours. A master mix was made containing 15 μL 5× lysis buffer, 50 μL luciferase assay buffer, and 1 μL luciferase substrate per well. 65 μL of master mix was added to each well. Luminescence from the reactions was read on a GLOMAX® Navigator and relative luminal units (RLU) for each reaction were analyzed. RLU values three times greater than an established background RLU level for LB (>750 RLU) were considered positive. The results, shown in Table 1, indicate that the recombinant phage are capable of detecting the tested bacterial strains.

MSSA = assay: Recombinant phage luciferase assay, oxacillin vs cefoxitin (Table 1), MSSA strains; assay type: cell-based, Staphylococcus aureus
Protocol: as §1

E. coli O157:H7 = assay type: cell-based; conditions: for signal reduction as compared to controls: 30 min antibiotic then 120 min phage
[1] = strain AR0463 MRSA, detected CFU 419
[2] = strain AR0465 MRSA, detected CFU 111
[3] = strain AR0472 MRSA, detected CFU 190
[4] = strain AR0476 MRSA, detected CFU 194
[5] = strain AR0481 MRSA, detected CFU 43
[6] = strain BAA-1720 MRSA, detected CFU 201
[7] = strain 12600 MSSA, detected CFU 389
[8] = strain AR0484 MSSA, detected CFU 153
[9] = strain AR0488 MSSA, detected CFU 285
[10] = strain AR0491 MSSA, detected CFU 300

With Cc1onc(-c2ccccc2)c1C(=O)N[C@@H]1C(=O)N2[C@@H]1SC(C)(C)[C@@H]2C(=O)O [Oxacillin, oxacillin] the “detection after incubation with oxacillin” value (MRSA; several MRSA strains) was “no detection”, the “Oxacillin (RLU) 1 ug/mL” value (MRSA; [1]) was 426 RLU and the “Oxacillin (RLU) 2 ug/mL” value (MRSA; [1]) was 353 RLU. The “Oxacillin (RLU) 1 ug/mL” value (MRSA; [2]) was 4944 RLU, the “Oxacillin (RLU) 2 ug/mL” value (MRSA; [2]) was 4965 RLU and the “Oxacillin (RLU) 1 ug/mL” value (MRSA; [3]) was 348 RLU. The “Oxacillin (RLU) 2 ug/mL” value (MRSA; [3]) was 281 RLU, the “Oxacillin (RLU) 1 ug/mL” value (MRSA; [4]) was 553 RLU and the “Oxacillin (RLU) 2 ug/mL” value (MRSA; [4]) was 212 RLU. For the same compound, the “Oxacillin (RLU) 1 ug/mL” value (MRSA; [5]) was 467 RLU, the “Oxacillin (RLU) 2 ug/mL” value (MRSA; [5]) was 268 RLU and the “Oxacillin (RLU) 1 ug/mL” value (MRSA; [6]) was 23810 RLU. For the same compound, the “Oxacillin (RLU) 2 ug/mL” value (MRSA; [6]) was 22560 RLU, the “detection after incubation with oxacillin” value (MSSA; several MSSA strains) was “no detection” and the “Oxacillin (RLU) 1 ug/mL” value (MSSA; [7]) was 1459 RLU. The “Oxacillin (RLU) 2 ug/mL” value (MSSA; [7]) was 697 RLU, the “Oxacillin (RLU) 1 ug/mL” value (MSSA; [8]) was 268 RLU and the “Oxacillin (RLU) 2 ug/mL” value (MSSA; [8]) was 219 RLU. The “Oxacillin (RLU) 1 ug/mL” value (MSSA; [9]) was 228 RLU, the “Oxacillin (RLU) 2 ug/mL” value (MSSA; [9]) was 198 RLU and the “Oxacillin (RLU) 1 ug/mL” value (MSSA; [10]) was 245 RLU. For the same compound, the “Oxacillin (RLU) 2 ug/mL” value (MSSA; [10]) was 221 RLU.

In the case of CC1(C)S[C@@H]2[C@H](NC(=O)[C@H](N)c3ccccc3)C(=O)N2[C@H]1C(=O)O [ampicillin], the “cells resistant or sensitive” value (E. coli O157:H7) is reported as “sensitive”, the “signal reduction as compared to controls” value (E. coli O157:H7; 10 μg/mL) is reported as “about 100 fold” and the “signal reduction as compared to controls” value (E. coli O157:H7; 25 μg/mL) is reported as about 1400 fold. For the same compound, the “signal reduction as compared to controls” value (E. coli O157:H7; 50 μg/mL) was about 2200 fold.

For CN[C@H](CC(C)C)C(=O)N[C@H]1C(=O)N[C@@H](CC(N)=O)C(=O)N[C@H]2C(=O)N[C@H]3C(=O)N[C@H](C(=O)N[C@H](C(=O)O)c4cc(O)cc(O)c4-c4cc3ccc4O)[C@H](O)c3ccc(c(Cl)c3)Oc3cc2cc(c3O[C@@H]2O[C@H](CO)[C@@H](O)[C@H](O)[C@H]2O[C@H]2C[C@](C)(N)[C@H](O)[C@H](C)O2)Oc2ccc(cc2Cl)[C@H]1O [vancomycin], the “cells resistant or sensitive” value (E. coli O157:H7) was “resistant” and the “signal change upon exposure” value (E. coli O157:H7; 10 μg/mL, 25 μg/mL, 50 μg/mL, or 100 μg/mL) was “signals increased”.
